Data from patent US20190231771A1, “METHODS FOR TREATMENT AND PREVENTION OF OPIOID INDUCED CONSTIPATION USING ORAL COMPOSITIONS OF METHYLNALTREXONE” (Salix Pharmaceuticals, Ltd., priority 2011, published 2019).
Like-named read-outs stand apart in the source and are kept apart here.

Tests used:
[1] = tested on: subjects with chronic non-malignant pain who have Opioid Induced Constipation (OIC); assay: Phase 3 randomized double-blind placebo-controlled study of Oral Methylnaltrexone for OIC; assay type: in vivo, human
Method: A phase 3, multicenter, randomized, double-blind, placebo-controlled, parallel-group study of OM for the treatment of OIC in approximately 802 subjects with chronic non-malignant pain was conducted.
Constipation due to opioid use during the screening period: Constipation is defined as <3 Rescue-Free Bowel Movements (RFBMs) per week on average (no laxative use within 24 hours prior to bowel movement) that were associated with 1 or more of the following (based on subject's diary report): • a. A Bristol Stool Form Scale type 1 or 2 for at least 25% of the rescue-free bowel movements. • b. Straining during at least 25% of the rescue-free bowel movements. • c. A sensation of incomplete evacuation after at least 25% of the rescue-free bowel movements.
Subjects who remained eligible at the baseline visit (day 1) were randomly assigned to either OM tablet formulation 150 mg, 300 mg, 450 mg, or placebo initially in a 1:1:1:1 allocation ratio. Subjects were required to take three tablets per day, first thing in the morning on an empty stomach (prior to breakfast). Subjects were instructed to swallow the tablets whole and never to chew, divide, or crush them and wait at least one half hour before ingesting any food. Subjects participated in the study for up to 84 days. The first 28 days were once daily dosing; the remaining 56 days were dosing as needed (PRN). Dosing remained double-blind throughout the 12 week period (84 days). The 84 day treatment period were followed by a 14-day post-treatment follow-up period (±2 days). Enrollment continued until a total of approximately 802 subjects have been randomized and dosed.
At the baseline visit, subjects were randomly assigned to either OM or placebo. Subjects who met all inclusion and no exclusion criteria at the baseline visit (day 1) received study medication. All doses were to be taken in the morning prior to breakfast [The first dose administered at the baseline visit could have been taken after Noon (12:00 pm)] and subjects were instructed to wait at least one half hour before ingesting any food. Subjects participated in the study for up to 84 days: the first 28 days were double-blind once daily dosing; the remaining 56 days were double-blind PRN dosing.
The primary efficacy endpoint of this Phase 3 study was the average proportion of rescue-free laxation responses per subject within 4 hours of all doses during the first four weeks of dosing. The key secondary efficacy endpoints in hierarchical order were:
1. Change in weekly number of RFBM from baseline during Weeks 1 to 4
2. Response (responder/non-responder) to study drug during Weeks 1 to 4, where responder was defined as having ≥3 RFBM/week, with at least 1 RFBM/week increase over baseline, for at least 3 out of the first 4 weeks.
The primary efficacy endpoint was the average proportion of rescue-free laxation responses per subject within 4 hours of all doses during the first 4 weeks of dosing.
The two key secondary efficacy endpoints in hierarchical order were: • 1. Change in weekly number of RFBMs from baseline over the entire first 4 weeks (28 days) of dosing. • 2. Response (responder/non-responder) to study drug during Weeks 1 to 4, where responder is defined as having […], with at least 1 RFBM/week increase over baseline, for at least 3 out of the first 4 weeks. […]

[2] = Study B: single and multiple dose pharmacokinetics after 20-minute intravenous infusion of 24 mg methylnaltrexone; assay type: in vivo, human; settings: 24 mg IV infusion; for AUC(0-inf) / Cmax: iv, 24 mg; for Cmax: read-out: Cmax
Method: Presented herein is a clinical pharmacokinetics study, Study C, as well as Studies A and B. Study A investigated the single and multiple dose pharmacokinetics of methylnaltrexone (MNTX) and its metabolites (M2: methylnaltrexone sulfate; M4: 6α-methylnaltrexol; and M5: 6β-methylnaltrexol) following the subcutaneous administration of 12 mg methylnaltrexone. In Study B, the single and multiple dose pharmacokinetics of methylnaltrexone (MNTX) and its metabolites (M2, M4, and M5) were examined following a 20-minute short intravenous infusion of 24 mg of methylnaltrexone (MNTX).
Pharmacokinetic parameters included Cmax, AUCt, AUCinf, tmax, t1/2, % Re24, accumulation factor (R) as defined below and metabolite/parent drug ratio.
R=Accumulation Factor(based on AUC0-24(ng·h/mL):Day 7 AUC AUC0-24/Day 1 AUC0-24
Metabolite-Parent Drug ratio(based on ng·h/mL)(%)=100*(Metabolite AUC24/MNTX AUC24)
Note: AUCinf was used in place of AUC AUC0-24 for R and Metabolite-Parent Drug ratio computations following IV administration.

[3] = rats; cited from earlier work
[4] = 150 mg, 300 mg and 450 mg daily oral vs placebo

SMILES: C[N@+]1(CC2CC2)CC[C@]23c4c5ccc(O)c4O[C@H]2C(=O)CC[C@@]3(O)[C@H]1C5.[Br-] [MNTX, (R)—N-(cyclopropylmethyl) noroxymorphone methobromide]
- primary efficacy endpoint: average proportion of rescue free bowel movements per subject within 4 hours of all doses during the first 4 weeks of dosing [1, 4]: demonstrate efficacy
- secondary efficacy endpoints: change in weekly number of RFBMs from baseline weeks 1-4; response to study drug [1, 4]: further demonstrate efficacy
- adverse events ([1]; dosages of 150 mg, 300 mg and 450 mg): did not result in adverse events
- proportion of subjects with rescue free bowel movements within 4 hours of the first dose ([1]; first dose of study drug): further confirmed efficacy
- laxation effects, fasted compared to non-fasted subjects ([1]; phase 3 study, following the first dose of study drug): increased in fasted subjects compared to non-fasted subjects
- R (IV), accumulation factor ([2]; AUCinf used): 1.17
- AUC(0-inf) ([2]; human, in vivo, Day 1, mean): 396 ng·h/mL
- Cmax ([2]; human, in vivo, Day 1, mean): 533 ng/mL
- AUC(0-inf) ([2]; human, in vivo, Day 7, mean): 375 ng·h/mL
- Cmax ([2]; human, in vivo, Day 7, mean): 520 ng/mL
- half-life ([2]; human, in vivo, day not given): 10.8 h
- AUC(0-t) ([2]; human, in vivo, day not given, mean, read-out: AUC0-6): 326 ng·h/mL
- estimated bioavailability after oral administration [3]: less than 1%
